Data as given in patent US8808702B2, “Sulfide, sulfoxide and sulfone chalcone analogues, derivatives thereof and therapeutic uses thereof” (Temple University-of the Commonwealth System of Higher …, priority 2006, dated 2014).
Read-outs that look alike come from different tables or passages of the source.

Assays:
DU145 (prostate cancer) = assay: Effect of compounds on tumor cell lines (assay of Latham et al.), DU145; format: cell-based; settings: Homo sapiens, DU-145, DU145 cells, examined 96 hours after treatment, 1 μM to 100 μM in DMSO, read-out: DU 145 potency (IC50)
In short: (§1)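 K562 or DU145 cells plated at 2.5×10^4 cells/well, treated 24 h later with compound in DMSO at 1 μM to 100 μM (0.1 μM to 100 μM for one compound). Activity judged by microscopic observation after 96 h; where needed, viable cells counted by trypan blue exclusion.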

[1] = test system: K562 (chronic myelogenous leukaemia); assay: Effect of compounds on tumor cell lines (assay of Latham et al.), K562; format: cell-based; settings: Homo sapiens, K562 cells, examined 96 hours after treatment, 1 μM to 100 μM in DMSO, read-out: K 562 potency (IC50)
In short: as §1

Structure (SMILES) | IC50 (DU145 (prostate cancer); Table 4) | IC50 ([1]; Table 4) | melting point | IC50 (DU145 (prostate cancer); Table 1) | IC50 ([1]; Table 1)
Cc1ccc(CS(=O)(=O)/C(=C/c2cccc(Cl)c2Cl)C(=O)c2ccc(Cl)cc2)cc1 [Example 423] | 1 to 10 µM | 1 to 10 µM | 162 to 165 °C | – | –
O=C(/C(=C\c1cc([N+](=O)[O-])ccc1F)S(=O)(=O)Cc1ccc(F)cc1)c1ccc(Br)cc1 [Example 403] | > 100 µM | 50 to 100 µM | 172 to 177 °C | – | –
Cc1ccc(/C=C(\C(=O)c2ccc(Cl)cc2)S(=O)(=O)Cc2ccc(Cl)cc2)s1 [Example 396] | 1 to 10 µM | 1 to 10 µM | 148 to 152 °C | – | –
Cc1ccc(CS(=O)(=O)/C(=C/c2sccc2C)C(=O)c2ccc(Cl)cc2)cc1 [Example 431] | 25 to 50 µM | 25 to 50 µM | 98 to 105 °C | – | –
O=C(/C(=C\c1c(O)cc(O)cc1O)S(=O)(=O)Cc1ccc(Cl)cc1)c1ccc(Cl)cc1 [Example 377] | > 100 µM | > 100 µM | 232 to 236 °C | – | –
CCOc1ccc(/C=C(\C(=O)c2ccc(Cl)cc2)S(=O)(=O)Cc2ccc(F)cc2)cc1OC [Example 412] | 50 to 100 µM | 25 to 50 µM | 145 to 149 °C | – | –
COc1ccc(/C=C(\C(=O)c2ccc(Br)cc2)S(=O)(=O)Cc2ccc(Cl)cc2)c(O)c1 [Example 382] | 10 to 25 µM | 10 to 25 µM | 72 to 78 °C | – | –
Cc1ccc(/C=C(\C(=O)c2ccc(Cl)cc2)S(=O)(=O)Cc2ccc(Cl)cc2Cl)s1 [Example 356] | 10 to 25 µM | 25 to 50 µM | 115 to 117 °C | – | –
Cc1ccc(CS(=O)(=O)/C(=C/c2c[nH]c3ccccc23)C(=O)c2ccc(Cl)cc2)cc1 [Example 430] | 25 to 50 µM | > 100 µM | 160 to 165 °C | – | –
Cc1ccc(CS(=O)(=O)/C(=C/c2cc(C)ccc2C)C(=O)c2ccc(Cl)cc2)cc1 [Example 425] | 1 to 10 µM | 1 to 10 µM | 176 to 182 °C | – | –
COc1ccsc1/C=C(\C(=O)c1ccc(Br)cc1)S(=O)(=O)Cc1ccc(Cl)cc1 [Example 387] | 50 to 100 µM | 25 to 50 µM | 128 to 136 °C | – | –
COc1cc(OC)c(/C=C(\C(=O)c2ccc([N+](=O)[O-])cc2)S(=O)(=O)Cc2ccc(Cl)cc2)c(OC)c1 [Example 379] | 10 to 25 µM | 10 to 25 µM | 62 to 64 °C | – | –
O=C(/C(=C\c1ccc(I)cc1)Sc1ccc(Br)cc1)c1ccc(Br)cc1 [Example 45, (E)-1-(4-bromophenyl)-2-(4-bromophenylthio)-3-(4-Iodophenyl)-prop-2-en-1-one] | – | – | 128 to 130 °C | 1 to 10 µM | 1 to 10 µM
Cc1ccc(CS(=O)(=O)/C(=C/c2ccc(N(C)C)cc2)C(=O)c2ccc(Cl)cc2)cc1 [Example 432] | 50 to 100 µM | 50 to 100 µM | 150 to 154 °C | – | –
O=C(/C(=C\c1ccc(Br)cc1)S(=O)(=O)Cc1ccc(F)cc1)c1ccc(Br)cc1 [Example 409] | 25 to 50 µM | 10 to 25 µM | 164 to 168 °C | – | –
Cc1ccsc1/C=C(\C(=O)c1ccc([N+](=O)[O-])cc1)S(=O)(=O)Cc1ccc(Cl)cc1 [Example 389] | 1 to 10 µM | 1 to 10 µM | 174 to 179 °C | – | –
Cc1ccc(/C=C(\C(=O)c2ccc([N+](=O)[O-])cc2)S(=O)(=O)Cc2ccc(Cl)cc2)s1 [Example 397] | 25 to 50 µM | 10 to 25 µM | 180 to 182 °C | – | –
Cc1ccc(CS(=O)(=O)/C(=C/c2c[nH]c3ccc(Br)cc23)C(=O)c2ccc(Cl)cc2)cc1 [Example 439] | 10 to 25 µM | 10 to 25 µM | 186 to 195 °C | – | –
COc1cc(OC)c(/C=C(\C(=O)c2ccc(Cl)cc2)S(=O)(=O)Cc2ccccc2Cl)c(OC)c1 [Example 357] | > 100 µM | 25 to 50 µM | 185 to 192 °C | – | –
Cc1ccc(CS(=O)(=O)/C(=C/c2ccccc2OCc2ccccc2)C(=O)c2ccc(Cl)cc2)cc1 [Example 426] | 1 to 10 µM | 1 to 10 µM | 112 to 129 °C | – | –
COc1ccccc1/C=C(\C(=O)c1ccc(Cl)cc1)S(=O)(=O)Cc1ccc(Cl)c(Cl)c1 [Example 364] | 1 to 10 µM | 1 to 10 µM | 154 to 157 °C | – | –
O=C(/C(=C\c1ccc(O)cc1)S(=O)(=O)Cc1ccc(Cl)c(Cl)c1)c1ccc(Cl)cc1 [Example 366] | 10 to 25 µM | 10 to 25 µM | 195 to 198 °C | – | –
COc1cc(OC)c(/C=C(\C(=O)c2ccc(Cl)cc2)S(=O)(=O)Cc2ccc(F)cc2)c(OC)c1 [Example 400] | 25 to 50 µM | 1 to 10 µM | 134 to 138 °C | – | –
Cc1ccc(C)c(/C=C(\C(=O)c2ccc(Cl)cc2)S(=O)(=O)Cc2ccc(Cl)cc2)c1 [Example 380] | 10 to 25 µM | 10 to 25 µM | 129 to 136 °C | – | –

Structure (SMILES) | IC50 (DU145 (prostate cancer); Table 4) | IC50 ([1]; Table 4) | melting point | IC50 (DU145 (prostate cancer); Table 1) | IC50 ([1]; Table 1)
CCOc1ccc(/C=C(\C(=O)c2ccc(Cl)cc2)S(=O)(=O)Cc2ccccc2Cl)cc1OC [Example 361] | 10 to 25 µM | 10 to 25 µM | 123 to 128 °C | – | –
O=C(/C(=C\c1ccccc1OCc1ccccc1)S(=O)(=O)Cc1ccc(Cl)cc1)c1ccc(Br)cc1 [Example 381] | 10 to 25 µM | 1 to 10 µM | 136 to 142 °C | – | –
COc1ccc(/C=C(\C(=O)c2ccc(Cl)cc2)S(=O)(=O)Cc2ccc(Cl)cc2)c(OC)c1OC [Example 375] | 10 to 25 µM | 1 to 10 µM | 148 to 151 °C | – | –
O=C(/C(=C\c1ccc(Br)cc1)S(=O)(=O)Cc1ccc(Cl)cc1)c1ccc(Cl)cc1 [Example 392] | 10 to 25 µM | 10 to 25 µM | 100 to 103 °C | – | –
O=C(/C(=C\c1ccc(O)cc1)S(=O)(=O)Cc1ccc(F)cc1)c1ccc(Br)cc1 [Example 413] | – | – | 188 to 192 °C | – | –
Cc1ccsc1/C=C(\C(=O)c1ccc(Cl)cc1)S(=O)(=O)Cc1ccc(Cl)cc1 [Example 388] | 25 to 50 µM | 25 to 50 µM | 130 to 139 °C | – | –
CN(C)c1ccc(/C=C(\C(=O)c2ccc(C(=O)O)cc2)S(=O)(=O)Cc2ccc(Cl)cc2)cc1 [Example 390] | – | – | 176 to 180 °C | – | –
CN(C)c1ccc(/C=C(\C(=O)c2ccc(Br)cc2)S(=O)(=O)Cc2ccc(F)cc2)cc1 [Example 408] | 50 to 100 µM | 50 to 100 µM | 155 to 162 °C | – | –
COc1ccc(CS(=O)(=O)/C(=C/c2c(OC)cc(OC)cc2OC)C(=O)c2ccc(OC)cc2)cc1 [Example 422, (E)-1-(4-methoxyphenyl)-2-(4-methoxybenzylsulfonyl)-3-(2,4,6-trimethoxyphenyl)-prop-2-en-1-one] | – | – | 60 to 62 °C | – | –
COc1ccccc1/C=C(\C(=O)c1ccc([N+](=O)[O-])cc1)S(=O)(=O)Cc1ccc(Cl)cc1 [Example 384] | 10 to 25 µM | 10 to 25 µM | 136 to 141 °C | – | –
Cc1ccsc1/C=C(\C(=O)c1ccc(Cl)cc1)S(=O)(=O)Cc1ccc(F)cc1 [Example 407] | 10 to 25 µM | 1 to 10 µM | 146 to 158 °C | – | –
Cc1ccc(/C=C(\C(=O)c2ccc(Cl)cc2)S(=O)(=O)Cc2ccc(F)cc2)s1 [Example 417] | – | – | 116 to 120 °C | – | –
Cc1ccc(CS(=O)(=O)/C(=C/c2cc(C)cc(C)c2)C(=O)c2ccc(Cl)cc2)cc1 [Example 429] | 10 to 25 µM | 10 to 25 µM | 169 to 178 °C | – | –
CSc1ccc(/C=C(\C(=O)c2ccc(Cl)cc2)S(=O)(=O)Cc2ccc(Cl)cc2)cc1 [Example 394] | 10 to 25 µM | 10 to 25 µM | 94 to 108 °C | – | –
COc1ccccc1/C=C(\C(=O)c1ccc(Cl)cc1)S(=O)(=O)Cc1ccc(Cl)cc1 [Example 383] | 25 to 50 µM | 25 to 50 µM | 135 to 142 °C | – | –
COc1cc(OC)c(/C=C(\C(=O)c2ccc(Br)cc2)S(=O)(=O)Cc2ccc(Cl)cc2)c(OC)c1 [Example 378] | 25 to 50 µM | 25 to 50 µM | 207 to 210 °C | – | –
O=C(/C(=C\c1ccc(OCc2ccccc2)cc1)S(=O)(=O)Cc1ccc(Cl)cc1)c1ccc(Cl)cc1 [Example 391] | 1 to 10 µM | 1 to 10 µM | 91 to 99 °C | – | –
O=C(/C(=C\c1ccc(Br)cc1)S(=O)(=O)Cc1ccccc1Cl)c1ccc(Cl)cc1 [Example 360] | 25 to 50 µM | 25 to 50 µM | 186 to 192 °C | – | –
COc1cc(/C=C(\C(=O)c2ccc(Cl)cc2)S(=O)(=O)Cc2ccccc2Cl)cc(OC)c1 [Example 359] | > 100 µM | 50 to 100 µM | 133 to 138 °C | – | –
CCOc1ccc(/C=C(\C(=O)c2ccc(Cl)cc2)S(=O)(=O)Cc2ccc(C)cc2)cc1OC [Example 435] | 10 to 25 µM | 10 to 25 µM | 65 to 72 °C | – | –
COc1ccc(/C=C(\C(=O)c2ccc(Br)cc2)S(=O)(=O)Cc2ccc(Cl)cc2)cc1 [Example 395] | 25 to 50 µM | 10 to 25 µM | 152 to 155 °C | – | –
COc1ccc(/C=C(\C(=O)c2ccc(Cl)cc2)S(=O)(=O)Cc2ccccc2Cl)cc1 [Example 363] | – | – | 195 to 210 °C | – | –
O=C(/C(=C\c1ccc(O)c([N+](=O)[O-])c1)S(=O)(=O)Cc1ccccc1Cl)c1ccc(Cl)cc1 [Example 362] | – | – | 222 to 226 °C | – | –
